The test has as its system P388 leukemia ip, CD2F1 mice, survival T/C. As to the kind of experiment: NCI In Vivo Anticancer Drug Screen. Data for tumor model P388 Leukemia (intraperitoneal) in CD2F1 (CDF1) mice. Conditions: endpoint: median survival time, higher = longer survival. The procedure, abridged: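 Mice carrying the transplanted tumor received test compound or vehicle. Survival was recorded in each group, and the value is the treated-group measurement divided by that of the vehicle-treated control group.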

[1] abbreviates: dose: 50.0 mg/kg/injection, schedule: Q01DX005 (ip), vehicle: saline with Tween-80.
The mark [2] stands for this setting: dose: 100.0 mg/kg/injection, schedule: Q01DX009 (ip), vehicle: saline with Tween-80.
Where [3] appears, read: dose: 100.0 mg/kg/injection, schedule: Q04DX003 (ip), vehicle: saline with Tween-80.
Setting [4] is: dose: 200.0 mg/kg/injection, schedule: Q01DX009 (ip), vehicle: saline with Tween-80.
[5] abbreviates: dose: 200.0 mg/kg/injection, schedule: Q04DX003 (ip), vehicle: saline with Tween-80.
Setting [6] is: dose: 400.0 mg/kg/injection, schedule: Q04DX003 (ip), vehicle: saline with Tween-80.
Setting [7] is: dose: 50.0 mg/kg/injection, schedule: Q01DX005 (ip), vehicle: Klucel + Tween-80.
Where [8] appears, read: dose: 50.0 mg/kg/injection, schedule: Q01DX009 (ip), vehicle: Klucel (hydroxypropylcellulose) (HPC).
[9] abbreviates: dose: 100.0 mg/kg/injection, schedule: Q01DX005 (ip), vehicle: saline with Tween-80.
Setting [10] is: dose: 200.0 mg/kg/injection, schedule: Q01DX005 (ip), vehicle: saline with Tween-80.
Where [11] appears, read: dose: 50.0 mg/kg/injection, schedule: Q01DX005 (ip), vehicle: saline.
The mark [12] stands for this setting: dose: 100.0 mg/kg/injection, schedule: Q01DX005 (ip), vehicle: saline.
[13] abbreviates: dose: 200.0 mg/kg/injection, schedule: Q01DX005 (ip), vehicle: saline.
Setting [14] is: dose: 100.0 mg/kg/injection, schedule: Q01DX009 (ip), vehicle: Klucel (hydroxypropylcellulose) (HPC).
[15] abbreviates: dose: 200.0 mg/kg/injection, schedule: Q01DX009 (ip), vehicle: Klucel (hydroxypropylcellulose) (HPC).
Setting [16] is: dose: 100.0 mg/kg/injection, schedule: Q04DX002 (ip), vehicle: saline with Tween-80.
Setting [17] is: dose: 200.0 mg/kg/injection, schedule: Q04DX002 (ip), vehicle: saline with Tween-80.

Molecules are shown by their SMILES. Several values for one entry are separate records, joined by “and”; a condition that tells them apart may be missing. Equal values may be shown once. Inconclusive results and toxic doses are left out.

Turning to `COc1ccc(-c2c(-c3ccccc3)oc(/N=C/c3ccccc3)c2-c2ccccc2)cc1`, the T/C by setting is: (dose: 12.5 mg/kg/injection, schedule: Q01DX005 (ip), vehicle: saline with Tween-80) 101 % of control; (dose: 25.0 mg/kg/injection, schedule: Q01DX005 (ip), vehicle: saline with Tween-80) 90 % of control; under setting [1], 90 % of control.

In the case of `S=c1sc2ccccc2n1CCNc1ccccc1`, the T/C was 90 % of control under setting [2]; 90 % of control under setting [3]; 90 % of control under setting [4]; 95 % of control under setting [5]; 86 % of control (dose: 400.0 mg/kg/injection, schedule: Q01DX009 (ip), vehicle: saline with Tween-80); 104 % of control under setting [6].

As for `COC(C(N)=O)c1ccccc1` (configuration not stated), the T/C (dose: 12.5 mg/kg/injection, schedule: Q01DX009 (ip), vehicle: saline) is 120 % of control; the T/C (dose: 25.0 mg/kg/injection, schedule: Q01DX009 (ip), vehicle: saline) was 110 % of control; the T/C (dose: 50.0 mg/kg/injection, schedule: Q01DX009 (ip), vehicle: saline) was 103 % of control; the T/C (dose: 200.0 mg/kg/injection, schedule: Q01DX009 (ip), vehicle: saline) is 103 % of control; the T/C (dose: 400.0 mg/kg/injection, schedule: Q01DX009 (ip), vehicle: saline) was 106 % of control.

As to `C(=N\Nc1nnc2c(n1)[nH]c1ccccc12)/c1cccnc1`, the T/C (dose: 12.5 mg/kg/injection, schedule: Q01DX005 (ip), vehicle: Klucel + Tween-80) is 106 % of control; the T/C (dose: 25.0 mg/kg/injection, schedule: Q01DX005 (ip), vehicle: Klucel + Tween-80) was 91 % of control; the T/C under setting [7] is 87 % of control.

In the case of `Nc1nc([Se])c2ncn(C3CC(O)C(CO)O3)c2n1` (configuration not stated), the T/C reads like this: (dose: 12.5 mg/kg/injection, schedule: Q01DX009 (ip), vehicle: Klucel (hydroxypropylcellulose) (HPC)) 160 % of control; (dose: 25.0 mg/kg/injection, schedule: Q01DX009 (ip), vehicle: Klucel (hydroxypropylcellulose) (HPC)) 169 % of control and 173 % of control; under setting [8], 112 % of control.

Consider `CC(=O)OCc1ccc(Cl)c(Cl)c1`, for which the T/C is 100 % of control under setting [3], 100 % of control under setting [5] and 104 % of control under setting [6].

For `Cc1c2ccncc2c(C)c2c1[nH]c1cc(O)ccc12`, the T/C by setting is: (dose: 3.13 mg/kg/injection, schedule: Q04DX003 (ip), vehicle: distilled water + Tween-80) 104 % of control; (dose: 6.25 mg/kg/injection, schedule: Q04DX003 (ip), vehicle: distilled water + Tween-80) 108 % of control and 111 % of control; (dose: 12.5 mg/kg/injection, schedule: Q04DX003 (ip), vehicle: distilled water + Tween-80) 122 % of control.

In the case of `Cc1cc(=O)c2cc3ccc4c5[nH]c(C)cc(=O)c5cc5ccc(c2[nH]1)c3c54`, the T/C reads like this: under setting [1], 101 % of control; under setting [9], 106 % of control; under setting [10], 111 % of control.

For the compound `CC(C)C(N)C(=O)NN` (configuration not stated), the T/C under setting [11] is 110 % of control, the T/C under setting [12] is 105 % of control and the T/C under setting [13] was 110 % of control.

Regarding `CCCCCCCCCCCC#CC(=O)O`, the T/C by setting is: (dose: 50.0 mg/kg/injection, schedule: Q01DX009 (ip), vehicle: saline with Tween-80) 110 % of control; under setting [2], 102 % of control; under setting [4], 105 % of control.

On to `CC(C)C1=CC(=O)C(C)(C2C(O)CC3(C)C4CC=C5C(CCC(O)C5(C)C)C4(C)C(=O)CC23C)O1` (configuration not stated), for which the T/C (dose: 10.13 mg/kg/injection, schedule: Q01DX005 (ip), vehicle: saline + alcohol) was 97 % of control; the T/C (dose: 20.25 mg/kg/injection, schedule: Q01DX005 (ip), vehicle: saline + alcohol) was 98 % of control; the T/C (dose: 40.05 mg/kg/injection, schedule: Q01DX005 (ip), vehicle: saline + alcohol) was 101 % of control; the T/C (dose: 81.0 mg/kg/injection, schedule: Q01DX005 (ip), vehicle: saline + alcohol) was 97 % of control.

In the case of `Nc1cc(=O)[nH]c(O)c1C(=O)O`, the T/C (dose: 25.0 mg/kg/injection, schedule: Q01DX009 (ip), vehicle: saline with Tween-80) is 95 % of control.

Turning to `O=C(O)CSc1nc(-c2nc3ccccc3s2)cn1-c1ccc(F)cc1`, the T/C is, setting by setting: under setting [8], 106 % of control; under setting [14], 106 % of control; under setting [15], 100 % of control.

Take `CC(C)N1CCC(OC(=O)Nc2ccccc2)C1` (configuration not stated): the T/C under setting [8] was 100 % of control, the T/C under setting [14] was 99 % of control and the T/C under setting [15] was 98 % of control.

Consider `COc1cccc2c1-c1nc(N)c3c(OC)cccc3c1C2=O`, for which the T/C is 106 % of control (dose: 100.0 mg/kg/injection, schedule: Q04DX002 (ip), vehicle: Klucel (hydroxypropylcellulose) (HPC)); 108 % of control (dose: 200.0 mg/kg/injection, schedule: Q04DX002 (ip), vehicle: Klucel (hydroxypropylcellulose) (HPC)); 107 % of control (dose: 400.0 mg/kg/injection, schedule: Q04DX002 (ip), vehicle: Klucel (hydroxypropylcellulose) (HPC)).

Consider `CN1C2CCC1C1N=NN(c3cc(C(F)(F)F)cc(C(F)(F)F)c3)C1(N1CCOCC1)C2` (configuration not stated), for which the T/C by setting is: under setting [7], 102 % of control; (dose: 100.0 mg/kg/injection, schedule: Q01DX005 (ip), vehicle: Klucel + Tween-80) 97 % of control.

Take `CCCCNCCCNCCCNC(=O)c1csc(-c2csc(CCNC(=O)C(NC(=O)C(C)C(O)C(C)NC(=O)C(NC(=O)c3nc(C(CC(N)=O)NCC(N)C(N)=O)nc(N)c3C)C(OC3OC(CO)C(O)C(O)C3OC3OC(CO)C(O)C(OC(N)=O)C3O)c3cnc[nH]3)C(C)O)n2)n1` (configuration not stated): the T/C is 104 % of control and 105 % of control (dose: 0.62 mg/kg/injection, schedule: Q01DX009 (ip), vehicle: water); 104 % of control and 105 % of control (dose: 1.25 mg/kg/injection, schedule: Q01DX009 (ip), vehicle: water); 104 % of control and 110 % of control and 117 % of control (dose: 2.5 mg/kg/injection, schedule: Q01DX009 (ip), vehicle: water); 108 % of control and 117 % of control and 120 % of control (dose: 5.0 mg/kg/injection, schedule: Q01DX009 (ip), vehicle: water); 104 % of control (dose: 10.0 mg/kg/injection, schedule: Q01DX009 (ip), vehicle: water); 105 % of control (dose: 20.0 mg/kg/injection, schedule: Q01DX009 (ip), vehicle: water). In addition, the T/C (dose: 40.0 mg/kg/injection, schedule: Q01DX009 (ip), vehicle: water) was 89 % of control.

Consider `COc1ccc(N=Nc2c(C)[nH]n(C)c2=O)cc1`, for which the T/C is, setting by setting: under setting [16], 96 % of control; under setting [17], 97 % of control.

On to `CS/C(=C\C=Nc1ccccc1)c1ccccc1`, for which the T/C under setting [16] was 103 % of control; the T/C under setting [17] was 100 % of control; the T/C (dose: 400.0 mg/kg/injection, schedule: Q04DX002 (ip), vehicle: saline with Tween-80) is 109 % of control.

Turning to `CCOC(=O)C1=C(C)O/C(=C/c2cccc(Cl)c2)C1=O`, the T/C was 117 % of control and 119 % of control under setting [1]; 121 % of control and 123 % of control under setting [9]; 113 % of control under setting [10].

For the compound `Cn1c(=O)n2n(c1=O)C1CCC2CC1`, the T/C under setting [11] was 98 % of control, the T/C under setting [12] was 102 % of control and the T/C under setting [13] was 100 % of control.

`O=C1C/C(=N\Nc2nc(-c3ccc(Cl)cc3)cs2)C(c2ccccc2)N1c1ccccc1` (configuration not stated): the T/C is 98 % of control (dose: 100.0 mg/kg/injection, schedule: Q01DX001 (ip), vehicle: saline with Tween-80); 90 % of control (dose: 200.0 mg/kg/injection, schedule: Q01DX001 (ip), vehicle: saline with Tween-80); 90 % of control (dose: 400.0 mg/kg/injection, schedule: Q01DX001 (ip), vehicle: saline with Tween-80).
